Results as given in patent US20190298674A1 (Ovid Therapeutics, Inc., priority 2018, published 2019).

Experiments:
plasma pharmacokinetics = conditions: in the dose range 5 mg-500 mg
Description: (§1) “PK” refers to the pharmacokinetic profile. Cmax is defined as the highest plasma drug concentration estimated during an experiment (ng/ml). Tmax is defined as the time when Cmax is estimated (min). AUC0-∞ is the total area under the plasma drug concentration-time curve, from drug administration until the drug is eliminated (ng·hr/ml). The area under the curve is governed by clearance. Clearance is defined as the volume of blood or plasma that is totally cleared of its content of drug per unit time (ml/min).

in vivo = conditions: plasma
Description: as §1

## N[C@H]1C[C@@H](C(=O)O)CC1=C(F)F
Plasma pharmacokinetics
  AUCs dose proportionality: greater than proportional increase
In vivo
  half-life: 4 to 6 h
